Source: US20170055529A1, “BROAD SPECTRUM WEED CONTROL IN FLOODED RICE BY IN-WATER APPLICATION OF AUXIN HERBICIDES” (priority 2015, published 2017)
Where two headings read alike, the source gives them in different places.

Experiments:
Format in all cases: in vivo
[1] = test system: CYPDI = Cyperus difformis (small-flower flatsedge); assay: Greenhouse in-water herbicidal activity (large pots); conditions: Cyperus difformis, 744 h, read-out: Percent (%) Visual Injury Ratings - 31 DAA, CYPDI
Description: (§1) Weed seeds or nutlets of the desired test plant species were planted in puddled soil (mud) prepared by mixing shredded topsoil and deionized (DI) water in a 1:1 ratio in a standard cement mixer. […] Osmocote® (17:6:10 N:P:K; 0.5 teaspoon) was added to the bottom of a container. The container is a high-density polyethylene (HDPE) round container (4.163 L (1.1 gallon), 15 cm high×20.55 cm diameter; for treatment purposes, the surface area is calculated as 331 cm^2 with 1 hectare equivalent to 10^8 cm^2). The mud mixture (2,750 mL) was added to the container filling it half full. Stakes were placed horizontally in each container to create separate areas for which to plant each different plant species. Water was added on a regular basis to maintain the paddy flood, and supplemental lighting was provided with overhead metal halide 1000-Watt lamps as necessary.
(§2) Once the plants had reached the proper size (the growth stage of the various species ranged from 2 to 4 leaves), the containers were flooded with city water to a depth of 3 cm submerging the plants 80-100%. The outside of each container was measured and marked at a 3-cm line with a black permanent marker to eliminate water level variability during the trial period. Water was added daily to maintain this water depth. Triclopyr triethylammonium (as Garlon® 3 A, 360 g ae/L); triclopyr butoxyethyl ester (as Garlon® 4, 480 g ae/L); fluroxypyr methylheptyl ester (meptyl or MHE, as Starane® Ultra, 333 g ae/L); fluroxypyr acid (850 grams acid equivalent per kilogram (g ae/kg)); 2,4-dichlorophenoxyacetic acid dimethylammonium (2,4-D DMA, as Weedar® 64 EC, 456 g ae/L); 2,4-dichlorophenoxyacetic acid 2-ethylhexyl ester (2,4-D 2-EHE, as Agri Star®, 456 g ae/L); clopyralid olamine (as Stinger®, 360 g ae/L); and penoxsulam (as Grasp® SC, 240 g ai/L) were used. Each herbicide treatment for each pot was mixed in water (80 mL) and applied directly into the paddy water at rates adjusted to the surface area. The dry formulations were pre-weighed based on the rate of the active ingredient to be applied on a per unit area basis, placed in 30 mL vials, and capped. Granules were spread onto the top of the water in each pot and dispersed throughout the water. Treatments were replicated 3 times.
(§3) The treated plants and control plants were placed in a greenhouse as described above and water was added as needed to maintain a flood depth of 3 cm. […]

[2] = test system: ECHCG = Echinochloa crus-galli (barnyardgrass); assay: as above; conditions: 744 h, read-out: Percent (%) Visual Injury Ratings - 31 DAA, ECHCG
Description: as §1, §2, §3

[3] = test system: MOOVA = Monochoria vaginalis (monochoria); assay: as above; conditions: Pontederia vaginalis, 744 h, read-out: Percent (%) Visual Injury Ratings - 31 DAA, MOOVA
Description: as §1, §2, §3

[4] = test system: SCPJU = Schoenoplectus juncoides (Japanese bulrush); assay: Greenhouse in-water herbicidal activity (small pots); conditions: 35 g ae/ha (as headed) in-water
Source text: (§4) Weed seeds of the desired test plant species were planted in puddled soil (mud) prepared by mixing a non-sterilized mineral soil (approximately 50 percent silt, 26 percent clay, and 24 percent sand, with a pH of about 7.6 and an organic matter content of about 2.9 percent) and water at a 1:1 volumetric ratio. The prepared mud was dispensed in 365 milliliter (mL) aliquots into 16-ounce (oz.) non-perforated plastic pots with a surface area of 86.59 square centimeters (cm^2) leaving a headspace of 3 centimeters (cm) in each pot. Mud was allowed to dry overnight prior to planting or transplanting. Rice seeds were planted in Sun Gro® MetroMix® 360 planting mixture, which typically has a pH of 6.0 to 6.8 and an organic matter content of about 30 percent, in plastic plug trays. Seedlings at the second or third leaf stage of growth were transplanted into 840 mL of mud contained in 32-oz. non-perforated plastic pots with a surface area of 86.59 cm^2 four days prior to herbicide application. The paddy was created by filling the headspace of the pots with 2.5 to 3 cm of water. When required to ensure good germination and healthy plants, a fungicide treatment and/or other chemical or physical treatment was applied. The plants were grown for 4-22 days (d) in a greenhouse with an approximate 14-hour (h) photoperiod which was maintained at about 29° C. during the day and 26° C. during the night. Nutrients were added as Osmocote® (19:6:12, Nitrogen:Phosphorus:Potassium (N:P:K)+minor nutrients) at 2 g per 16 oz. pot and 4 g per 32 oz. pot. Water was added on a regular basis to maintain the paddy flood, and supplemental lighting was provided with overhead metal halide 1000-Watt lamps as necessary. The plants were used for testing when they reached the second or third true leaf stage.
(§5) Triclopyr triethylammonium (as Grandstand® R, 359.5 grams acid equivalent per liter (g ae/L)); fluroxypyr methylheptyl ester (meptyl or MHE, as Starane™, 179.8 g ae/L); 2,4-dichlorophenoxyacetic acid dimethylammonium (2,4-D DMA, as Weedar® 64, 455.4 g ae/L); and penoxsulam (as Grasp® SC, 239.7 grams active ingredient per liter (g ai/L) were used. Measured amounts of formulated compounds were placed in individual 120 mL glass vials and were dissolved in 40 mL of an aqueous mixture containing 1.25% volume per volume (v/v) Agri-Dex® crop oil concentrate. Generally, multiple concentrations were tested utilizing the same stock solution. Applications were made by injecting an appropriate amount of the application solution into the aqueous layer of the paddy. Control plants were treated in the same manner with the solvent blank.
(§6) The treated plants and control plants were placed in a greenhouse as described above and water was added as needed to maintain a paddy flood. After approximately 3 weeks the condition of the test plants, compared with that of the untreated plants, was determined visually and scored on a scale of 0 to 100 percent where 0 corresponds to no injury or growth reduction and 100 corresponds to complete kill.

[5] = test system: ECHCG = Echinochloa crus-galli (barnyardgrass); assay: as above; conditions: 35 g ae/ha (as headed) in-water
Source text: as §4, §5, §6

[6] = test system: MOOVA = Monochoria vaginalis (monochoria); assay: as above; conditions: 35 g ae/ha (as headed) in-water
Source text: as §4, §5, §6

[7] = test system: CYDPI = Cyperus difformis (small-flower flatsedge); assay: as above; conditions: 35 g ae/ha (as headed) in-water
Source text: as §4, §5, §6

[8] = test system: ORYSP = Oryza sativa (transplanted paddy rice); assay: Greenhouse in-water application (large pots), crop injury
Description: as §1, §2, §3

rice = assay: In-water application, crop safety (summary statement)
[9] = test system: barnyardgrass (Echinochloa crus-galli), small-flower flatsedge (Cyperus difformis), Japanese bulrush (Schoenoplectus juncoides) and monochoria (Monochoria …); assay: In-water application, weed efficacy (summary statement); conditions: application rate of about 35 to about 280 g ae/ha
[10] = 280 g ae/ha in-water, greenhouse large pots, 31 DAA
[11] = 560 g ae/ha in-water, greenhouse large pots, 31 DAA
[12] = 1120 g ae/ha in-water, greenhouse large pots, 31 DAA
[13] = 35 g ai/ha in-water, greenhouse large pots, 31 DAA
[14] = application rates of less than or equal to 280 g ae/ha

Compound | pest or weed control at 280 g/ha [1, 10] [%] | pest or weed control at 1120 g/ha [1, 12] [%] | pest or weed control at 280 g/ha [2, 10] [%] | pest or weed control at 560 g/ha [2, 11] [%] | pest or weed control at 1120 g/ha [2, 12] [%] | pest or weed control at 280 g/ha [3, 10] [%] | pest or weed control at 1120 g/ha [3, 12] [%] | efficacy on several commercially relevant weeds [9] | crop safety exhibited by rice (rice; [14]) | further results
CCCCC(CC)COC(=O)COc1ccc(Cl)cc1Cl (stereo not shown) [2,4-D 2-ethylhexyl ester (Agri Star ®)] | 100 | 100 | 35 | 65 | 87 | 100 | 100 | – | – | pest or weed control at 560 g/ha [1, 11]: 100%; pest or weed control at 560 g/ha [3, 11]: 100%
COc1cnc(OC)n2nc(NS(=O)(=O)c3c(OCC(F)F)cccc3C(F)(F)F)nc12 [Penoxsulam (Grasp ® SC), penoxsulam] | – | – | – | – | – | – | – | – | – | pest or weed control at 35 g/ha [1, 13]: 99%; pest or weed control at 35 g/ha [2, 13]: 100%; pest or weed control at 35 g/ha [3, 13]: 100%; Percent (%) Visual Injury Ratings - 20 DAA, SCPJU [4]: 100%; Percent (%) Visual Injury Ratings - 20 DAA, ECHCG [5]: 99%; Percent (%) Visual Injury Ratings - 20 DAA, MOOVA [6]: 99%; Percent (%) Visual Injury Ratings - 20 DAA, CYDPI [7]: 100%
CCCCOCCOC(=O)COc1nc(Cl)c(Cl)cc1Cl [Triclopyr butoxyethyl ester (Garlon ® 4), 2-butoxyethyl 2[(3,5,6-trichloro-2-pyridinyl)oxy]acetate] | 100 | 100 | 60 | 78 | 95 | 100 | 100 | – | – | pest or weed control at 560 g/ha [1, 11]: 100%; pest or weed control at 560 g/ha [3, 11]: 100%; Percent (%) Visual Injury Ratings - 31 DAA, ORYSP ([8]; 280 g ae/ha in-water): 3%; Percent (%) Visual Injury Ratings - 31 DAA, ORYSP ([8]; 560 g ae/ha in-water): 22%; Percent (%) Visual Injury Ratings - 31 DAA, ORYSP ([8]; 1120 g ae/ha in-water): 72%
Nc1c(Cl)c(F)nc(OCC(=O)O)c1Cl [Fluroxypyr acid, 2-[(4-amino-3,5-dichloro-6-fluoro-2-pyridinyl)oxy]-acetic acid] | 100 | 100 | 27 | 28 | 45 | 98 | 100 | highly efficacious | – | crop safety exhibited by rice (rice; in vivo): little to no crop injury
O=C(O)c1nc(Cl)ccc1Cl [Clopyralid olamine (Stinger ®), 2-hydroxyethanaminium 3,6-dichloro-2-pyridinecarboxylate] | – | – | – | – | – | – | – | – | – | pest or weed control at 280 g/ha [1]: 7%; pest or weed control at 560 g/ha [1]: 53%; pest or weed control at 1120 g/ha [1]: 59%; pest or weed control at 280 g/ha [2]: 17%; pest or weed control at 560 g/ha [2]: 4%; pest or weed control at 1120 g/ha [2]: 5%; pest or weed control at 280 g/ha [3]: 10%; pest or weed control at 560 g/ha [3]: 18%; pest or weed control at 1120 g/ha [3]: 23%; Percent (%) Visual Injury Ratings - 31 DAA, ORYSP ([8]; 280 g ae/ha in-water): 0%; Percent (%) Visual Injury Ratings - 31 DAA, ORYSP ([8]; 560 g ae/ha in-water): 0%; Percent (%) Visual Injury Ratings - 31 DAA, ORYSP ([8]; 1120 g ae/ha in-water): 0%
O=C(O)COc1nc(Cl)c(Cl)cc1Cl [triclopyr, 2-[(3,5,6-trichloro-2-pyridinyl)oxy]acetic acid] | – | – | – | – | – | – | – | highly efficacious | little to no crop injury | –
O=C(O)COc1ccc(Cl)cc1Cl [2,4-D, (2,4-dichlorophenoxy)acetic acid] | – | – | – | – | – | – | – | highly efficacious | little to no crop injury | –
O=C(O)c1nc(Cl)ccc1Cl [clopyralid, 3,6-dichloro-2-pyridinecarboxylic acid] | – | – | – | – | – | – | – | highly efficacious | little to no crop injury | –
